System: crops and weed species
Test: Pre- and post-emergence herbicide tests, overall (Tables III-VI)
Type: in vivo
Settings: in words
Experimental: (§1) All crop and weed species were planted individually in 3" plastic pots containing potting soil. Four seeds each of corn, cotton, and snapbeans were seeded to a depth equal to the diameter of the seed. All other species were surface seeded and sprinkled with screened soil in an amount sufficient to cover the seed. Immediately after planting, all pots were watered by sub-irrigation in greenhouse trays. Pots for the pre-emergence phase were seeded one day before treatment.
(§2) Planting dates for the post-emergence phase were varied so that all seedlings would reach the desired stage of development simultaneously. The proper stage of seedling development for treatment in the post-emergence phase is as follows:
(§3) Compounds were tested at rates of application equivalent to 8 lbs. of actual compound per acre in a spray volume of 38 gallons per acre. Spray hood constants required to deliver the above volume are as follows:
Two weeks after treatment, pre- and post-emergence injury or control was visually rated, and the results were as shown in the following tables. Pre-emergence data are provided in TABLE III and post-emergence data are provided in TABLE IV, for compounds having the formula illustrated in TABLE I. Correspondingly, pre-emergence and post-emergence data, respectively, are set forth in TABLES V AND VI, for compounds having the formula illustrated in TABLE II.

Question: How did the “herbicidal effectiveness on a variety of crops and weed species” value (“herbicidal effectiveness on a variety” below) turn out when CNC(=O)Nc1nnc(C(F)(F)F)s1 [Example 1, 1-Methyl-3-[5-Trifluoromethyl-2-(1,3,4-Thiadiazolyl)] Urea] was run?
Answer: extremely effective

Question: For CN(C)C(=O)Nc1nnc(C(F)(F)F)s1 [Example 2, 1,1-Dimethyl-3-[5-Trifluoromethyl-2-(1,3,4-Thiadiazolyl)] Urea], which “herbicidal effectiveness on a variety” value is on record?
Answer: extremely effective

Question: For CSc1nnc(N(C)C(=O)N(C)C)s1 [Example 5, 1,1,3-trimethyl-3-[5-methylthio-2-(1,3,4-thiadiazolyl)] urea], which “herbicidal effectiveness on a variety” value is on record?
Answer: extremely effective

Question: How did the “selectivity toward a certain crop or weed species” value turn out when CCNC(=O)Nc1nnc(C(F)(F)F)s1 [Example 9] was run?
Answer: more selective when applied to a certain crop or weed species

Question: Which “selectivity post-emergence versus pre-emergence” value does the source give for C=CCNC(=O)Nc1nnc(C(F)(F)F)s1 [Example 12] here?
Answer: control post-emergence growth, while have little effect in regard to pre-emergence

Question: Which “selectivity toward a certain crop or weed species” value does the source give for O=C(Nc1ccc(Cl)cc1)Nc1nnc(C(F)(F)F)s1 [Example 15] here?
Answer: more selective when applied to a certain crop or weed species

Question: O=C(Nc1ccc(Cl)c(Cl)c1)Nc1nnc(C(F)(F)F)s1 [Example 16] was tested. Which “selectivity toward a certain crop or weed species” value did it give?
Answer: more selective when applied to a certain crop or weed species

Question: How did the “selectivity post-emergence versus pre-emergence” value turn out when Cc1nnc(NC(=O)N(C)C)s1 [Example 19] was run?
Answer: The converse of this relationship

Question: CCc1nnc(NC(=O)N(C)C)s1 [Example 20] was tested. Which “selectivity toward a certain crop or weed species” value did it give?
Answer: more selective when applied to a certain crop or weed species

Question: Which “selectivity toward a certain crop or weed species” value does the source give for CNC(=O)Nc1nnc(CC(C)C)s1 [Example 21] here?
Answer: more selective when applied to a certain crop or weed species

Question: CNC(=O)Nc1nnc(COC)s1 [Example 25] was tested. Which “selectivity toward a certain crop or weed species” value did it give?
Answer: more selective when applied to a certain crop or weed species

Question: Which “herbicidal effectiveness on a variety” value does the source give for CNC(=O)Nc1nnc(SC)s1 [Example 26] here?
Answer: extremely effective

Question: Which “selectivity toward a certain crop or weed species” value does the source give for CNC(=O)Nc1nncs1 [Example 35] here?
Answer: more selective when applied to a certain crop or weed species

Question: For CNC(=O)N(C)c1nnc(C(F)(F)F)s1 [Example 36], which “herbicidal effectiveness on a variety” value is on record?
Answer: extremely effective

Question: Which “herbicidal effectiveness on a variety” value does the source give for CCN(C(=O)NC)c1nnc(C(F)(F)F)s1 [Example 37] here?
Answer: extremely effective

System: Cotton (CT)
Test: Post-emergence herbicide test, cotton
Type: in vivo, Gossypium hirsutum var. DPL smooth leaf
Settings: Gossypium hirsutum, 336 h, 2 lb/acre, two weeks after treatment
Experimental: Cotton (CT)--Gossypium hirsutum var. DPL smooth leaf
as §1, §2
Cotton: first true leaf 1" in length; expanded cotyledons.
as §3
(§4) Formulations for spray applications were prepared in 50 ml volumes with the following three components:
(§5) Formulations for the 4 lbs/acre rate were prepared by adjusting the amount of active ingredient accordingly.
(§6) Spray applications were made in a hood containing a removable belt and fixed spray nozzle. […]

Question: For CNC(=O)Nc1nnc(SCCCCl)s1 [Example 61], which pest or weed control at 2241.7 g/ha is on record?
Answer: 40%

System: Amaranth pigweed (PW)
Test: Post-emergence herbicide test, amaranth pigweed
Type: in vivo, Amaranthus retroflexus
Settings: 336 h, 8 lb/acre, two weeks after treatment
Experimental: as §1, §2
Pigweed and turnips: 1 or 2 true leaves above visible cotyledons.
as §3, §4, §5, §6

Question: Which pest or weed control at 8966.8 g/ha does the source give for O=C(Nc1ccc(Cl)c(Cl)c1)Nc1nnc(C(F)(F)F)s1 [Example 16] here?
Answer: 100%

System: Corn (CN)
Test: Post-emergence herbicide test, corn
Type: in vivo
Settings: Zea mays, 336 h, 2 lb/acre, two weeks after treatment
Experimental: as §1, §2, §3, §4, §5
Spray applications were made in a hood containing a removable belt and fixed spray nozzle. For passage through the spray hood, one pot of each specie (pre-emergence phase) was placed on the rear half of the flat. Treatments were removed to the greenhouse after spraying. […]

Question: For CNC(=O)Nc1nnc(SCCCCl)s1 [Example 61], which pest or weed control at 2241.7 g/ha is on record?
Answer: 100%

From patent US4182712A, “5-Substituted thiadiazole ureas” (Mobil Oil Corporation, priority 1977, dated 1980)
